From paper PMC9182007, “Statistical Methods in the Study of Protein Binding and Its Relationship to Drug Bioavailability in Breast Milk” (Molecules, 2022)
Like-named read-outs stand apart in the source and are kept apart here.

Tests used:
plasma protein = conditions: Table S1, plasma protein binding given as fraction; ref DrugBank [7]; cited from earlier work
[1] = HPLC on immobilized artificial membrane column (HPLCIAM); type: physicochemical; conditions: for log k IAM: Table S5, IAM column, pH 7.4; for k IAM: Table S5, retention factor, IAM column, phosphate buffer pH 7.4/acetonitrile 80:20
[2] = Table S1, milk/plasma drug concentration ratio, in vivo; cited from earlier work
[3] = target: T1, human serum albumin (HSA) (Homo sapiens, UniProt P02768)
[4] = target: T2, bovine serum albumin (BSA) (Bos taurus, UniProt P02769); assay: RP TLC on plates impregnated with bovine serum albumin; type: binding; conditions: Table S4, RP plate impregnated with 2 mg/mL BSA; pH 7.4 mobile phase
T2 construct: purchased Sigma Aldrich

[5] = Milk-to-plasma (M/P) drug concentration ratio obtained in vivo, from literature; parameters: species or system human; conditions: Table S1, scale of drug penetration into milk 1-4
[6] = target: T2, bovine serum albumin (BSA); assay: NP TLC on plates impregnated with bovine serum albumin; type: binding; conditions: Table S3, NP plate impregnated with 2 mg/mL BSA; pH 7.4 mobile phase
[7] = NP TLC on non-impregnated control plates; type: physicochemical; conditions: Table S3, non-impregnated NP plate; acetonitrile/acetate buffer pH 7.4/methanol 60:20:20
[8] = RP TLC on non-impregnated control plates; type: physicochemical; conditions: Table S4, non-impregnated RP plate; acetonitrile/acetate buffer pH 7.4/methanol 60:20:20
[9] = Table S1, coded 1/0; ref DrugBank [7]; cited from earlier work
[10] = target: T1, human serum albumin (HSA); assay: in vitro; conditions: immobilized hsa column, pH 7.4
[11] = Table S5, retention factor, HSA column, pH 7.4, 25 degrees Celsius
[12] = human, immobilized hsa column, pH 7.4

T2 sequence (P02769 25-607): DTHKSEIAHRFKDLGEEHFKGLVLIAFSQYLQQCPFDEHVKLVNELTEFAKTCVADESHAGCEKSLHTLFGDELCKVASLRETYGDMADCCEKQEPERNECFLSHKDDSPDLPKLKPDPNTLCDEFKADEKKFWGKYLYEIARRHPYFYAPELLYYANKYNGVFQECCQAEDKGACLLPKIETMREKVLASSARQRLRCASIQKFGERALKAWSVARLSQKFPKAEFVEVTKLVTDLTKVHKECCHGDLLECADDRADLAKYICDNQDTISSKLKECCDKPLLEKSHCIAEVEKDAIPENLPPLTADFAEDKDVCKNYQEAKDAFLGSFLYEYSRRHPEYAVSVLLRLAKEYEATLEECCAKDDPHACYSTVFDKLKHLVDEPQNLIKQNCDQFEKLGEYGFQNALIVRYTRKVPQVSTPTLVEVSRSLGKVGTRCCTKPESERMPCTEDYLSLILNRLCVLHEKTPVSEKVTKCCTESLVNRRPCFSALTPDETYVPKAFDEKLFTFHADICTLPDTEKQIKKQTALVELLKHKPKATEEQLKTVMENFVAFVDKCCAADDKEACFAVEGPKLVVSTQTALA
T1 sequence (P02768 25-609): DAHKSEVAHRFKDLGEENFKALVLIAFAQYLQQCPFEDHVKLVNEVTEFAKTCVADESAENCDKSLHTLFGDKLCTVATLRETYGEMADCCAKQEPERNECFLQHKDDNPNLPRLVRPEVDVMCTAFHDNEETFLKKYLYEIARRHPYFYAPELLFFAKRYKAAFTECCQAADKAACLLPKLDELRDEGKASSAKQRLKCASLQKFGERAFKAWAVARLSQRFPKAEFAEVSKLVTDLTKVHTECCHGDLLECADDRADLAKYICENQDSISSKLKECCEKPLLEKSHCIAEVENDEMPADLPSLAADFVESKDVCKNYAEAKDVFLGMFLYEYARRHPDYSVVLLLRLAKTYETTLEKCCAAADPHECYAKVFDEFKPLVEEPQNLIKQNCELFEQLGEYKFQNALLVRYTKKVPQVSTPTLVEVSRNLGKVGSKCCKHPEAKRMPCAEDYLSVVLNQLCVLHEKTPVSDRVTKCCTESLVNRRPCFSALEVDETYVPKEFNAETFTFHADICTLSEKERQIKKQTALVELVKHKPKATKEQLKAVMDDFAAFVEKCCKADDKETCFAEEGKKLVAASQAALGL

Structure (SMILES) | PB (plasma protein) | log k IAM [1] | k IAM [1] | M/P [2] | k HSA [3, 11] | log k HSA [3, 12] | RP (Rf, BSA-impregnated RP plate) [4] | M/P code [5] | NP (Rf, BSA-impregnated NP plate) [6] | CNP (Rf, control NP plate) [7] | CRP (Rf, control RP plate) [8] | CNS+/- [9] | k HSA ([3]; pH 7.4) | chromatographic logD [10] | log k HSA ([3]; Table S5, HSA, pH 7.4)
CN[C@H]1CC[C@@H](c2ccc(Cl)c(Cl)c2)c2ccccc21 [sertraline] | 0.98 | 1.63 | 42.89 | 1.85 | 13.19 | 1.12 | 0.48 | 4 (4 is M/P >1.20—dangerous) | 0.53 | 0.53 | 0.49 |  |  |  | 
CC(C)NCC(O)COc1ccc(CCOCC2CC2)cc1 (stereo not drawn) [betaxolol] | 0.5 |  |  | 2.75 | 1.59 | 0.20 | 0.25 | 4 (4 is M/P >1.20—dangerous) | 0.65 | 0.66 | 0.27 | 0 |  |  | 
O=C(O)C1N=C(c2ccccc2)c2cc(Cl)ccc2NC1=O (stereo not drawn) [clorazepate] | 0.975 | 0.69 | 4.88 | 0.2 |  |  | 0.81 | 1 (Code 1 corresponds to drugs with an M/P value <0.40—completely safe) | 0.94 | 0.94 | 0.81 |  | 3.99 | 0.6 | 
Cc1ccc(-c2cc(C(F)(F)F)nn2-c2ccc(S(N)(=O)=O)cc2)cc1 [celecoxib] | 0.97 | 1.70 | 50.01 | 0.41 | 13.42 |  | 0.75 | 2 (2 corresponds to the range of 0.40–0.80—at the safety limit) | 0.99 | 0.98 | 0.75 | 1 |  |  | 1.13
OCCN1CCN(CCC=C2c3ccccc3Sc3ccc(C(F)(F)F)cc32)CC1 [flupenthixol] | 0.95 | 1.71 | 51.21 | 1.15 | 15.36 |  | 0.66 | 3 (3 range 0.81–1.20—possibly over the safety limit) | 0.52 | 0.51 | 0.66 | 1 |  | 1.19 | 
Fc1ccc([C@@H]2CCNC[C@H]2COc2ccc3c(c2)OCO3)cc1 [paroxetine] | 0.94 | 2.06 | 115.77 | 0.675 | 5.96 |  | 0.67 | 2 (2 corresponds to the range of 0.40–0.80—at the safety limit) | 0.56 | 0.55 | 0.60 | 1 |  |  | 0.78
CN1CCN(C(=O)OC2c3nccnc3C(=O)N2c2ccc(Cl)cn2)CC1 (stereo not drawn) [zopiclone] | 0.45 | -0.04 | 0.91 | 0.51 |  |  | 0.83 | 2 (2 corresponds to the range of 0.40–0.80—at the safety limit) | 0.96 | 0.96 | 0.84 |  | 0.76 | -0.12 | 
CCCC(CCC)C(=O)O [valproic acid] | 0.85 | -1.09 | 0.08 | 0.05 | 4.46 |  | 0.04 | 1 (Code 1 corresponds to drugs with an M/P value <0.40—completely safe) | 0.67 | 0.69 | 0.04 | 1 |  | 0.65 | 
CC1(C)S[C@@H]2[C@H](NC(=O)[C@H](N)c3ccc(O)cc3)C(=O)N2[C@H]1C(=O)O [amoxilcillin] | 0.2 | -1.32 | 0.05 | 0.028 | 0.94 |  | 0.98 | 1 (Code 1 corresponds to drugs with an M/P value <0.40—completely safe) | 0.68 | 0.68 | 0.99 | 0 |  |  | -0.03
COc1cc(N)c(Cl)cc1C(=O)NC1CCN(CCCOc2ccc(F)cc2)CC1OC (stereo not drawn) [cisapride] | 0.975 | 1.76 | 57.99 | 0.045 | 4.88 | 0.69 | 0.62 | 1 (Code 1 corresponds to drugs with an M/P value <0.40—completely safe) | 0.63 | 0.64 | 0.65 | 1 |  |  | 
CC(=O)Oc1ccccc1C(=O)O [acetylsalicylic acid] | 0.995 | -1.52 | 0.03 | 1.08 | 0.31 |  | 0.99 | 3 (3 range 0.81–1.20—possibly over the safety limit) | 0.90 | 0.89 | 0.98 | 1 |  | -0.51 | 
CN1C(C(=O)Nc2ccccn2)=C(O)c2ccccc2S1(=O)=O [piroxicam] |  | -0.79 | 0.16 | 0.02 | 32.92 |  | 0.60 | 1 (Code 1 corresponds to drugs with an M/P value <0.40—completely safe) | 0.98 | 0.98 | 0.58 | 0 |  | 1.52 | 
OCCN1CCN(CC/C=C2/c3ccccc3Sc3ccc(Cl)cc32)CC1 [zuclopenthixol] | 0.985 | 1.69 | 48.73 | 0.37 | 16.18 |  |  | 1 (Code 1 corresponds to drugs with an M/P value <0.40—completely safe) | 0.47 | 0.47 |  | 1 |  | 1.21 | 
CCOC(=O)[C@H](CCc1ccccc1)N[C@@H](C)C(=O)N1Cc2ccccc2C[C@H]1C(=O)O [quinapril] | 0.97 | 0.09 | 1.22 | 0.12 | 3.1 | 0.49 | 0.56 | 1 (Code 1 corresponds to drugs with an M/P value <0.40—completely safe) | 0.44 | 0.44 | 0.57 | 0 |  |  | 
CCOC(=O)[C@H](CCc1ccccc1)N[C@@H](C)C(=O)N1CCC[C@H]1C(=O)O [enalapril] | 0.55 | -1.29 | 0.05 | 0.02 | 0.34 |  | 0.58 | 1 (Code 1 corresponds to drugs with an M/P value <0.40—completely safe) | 0.33 | 0.33 | 0.60 | 0 |  | -0.47 | 
O=c1n(CCCN2CCN(c3cccc(Cl)c3)CC2)nc2ccccn12 [trazodone] | 0.92 | 0.97 | 9.30 | 0.53 | 2.22 |  | 0.74 | 2 (2 corresponds to the range of 0.40–0.80—at the safety limit) | 0.72 | 0.71 | 0.76 | 1 |  | 0.35 | 
CC[C@H]1OC(=O)[C@H](C)[C@@H](O[C@H]2C[C@@](C)(OC)[C@@H](O)[C@H](C)O2)[C@H](C)[C@@H](O[C@@H]2O[C@H](C)C[C@H](N(C)C)[C@H]2O)[C@](C)(OC)C[C@@H](C)C(=O)[C@H](C)[C@@H](O)[C@]1(C)O [clarithromycin] |  | -1.02 | 0.10 | 0.25 | 0.82 |  | 0.78 | 1 (Code 1 corresponds to drugs with an M/P value <0.40—completely safe) | 0.99 | 0.99 | 0.83 | 0 |  |  | -0.09
